According to patent publication US8048862B2, “Macrocyclic inhibitors of hepatitis C virus replication” (priority 2008, dated 2011):
Where two headings read alike, the source gives them in different places.

Experiments:
[1] = biological target: NS3/NS4 complexes (Hepatitis C virus genotype 1a, UniProt P27958); experiment: NS3/NS4 inhibition activity (IC50); type: biochemical
From the text: NS3-NS4 inhibition activity can be determined using known assay methods. For example, NS3/NS4 complexes may be formed and inhibitory concentrations of test compounds determined as described in U.S. Patent Application Publication Number 2007/0054842 paragraph numbers 1497-1509, which is incorporated herein by reference in its entirety. Similarly, hepatitis C replicon EC50 may be determined using known assay methods such as described in U.S. Patent Application Publication Number 2007/0054842 paragraph numbers 1510-1515. Assays may be conducted at ambient temperature (23° C.) in assay buffer containing 50 mM Tris-HCl, pH 7.5, 15% glycerol, 0.6 mM Lauryldimethylamine Oxide (LDAO), 25 μM NS4A peptide, and 10 mM Dithiothreitol (DTT).

[2] = test system: hepatitis C replicon; experiment: hepatitis C replicon EC50; type: cell-based; conditions: Hepatitis C virus; Table 2; hepatitis C replicon; read-out: EC50
From the text: NS3-NS4 inhibition activity can be determined using known assay methods.

Chain of NS3/NS4 complexes (P27958 1027-1657): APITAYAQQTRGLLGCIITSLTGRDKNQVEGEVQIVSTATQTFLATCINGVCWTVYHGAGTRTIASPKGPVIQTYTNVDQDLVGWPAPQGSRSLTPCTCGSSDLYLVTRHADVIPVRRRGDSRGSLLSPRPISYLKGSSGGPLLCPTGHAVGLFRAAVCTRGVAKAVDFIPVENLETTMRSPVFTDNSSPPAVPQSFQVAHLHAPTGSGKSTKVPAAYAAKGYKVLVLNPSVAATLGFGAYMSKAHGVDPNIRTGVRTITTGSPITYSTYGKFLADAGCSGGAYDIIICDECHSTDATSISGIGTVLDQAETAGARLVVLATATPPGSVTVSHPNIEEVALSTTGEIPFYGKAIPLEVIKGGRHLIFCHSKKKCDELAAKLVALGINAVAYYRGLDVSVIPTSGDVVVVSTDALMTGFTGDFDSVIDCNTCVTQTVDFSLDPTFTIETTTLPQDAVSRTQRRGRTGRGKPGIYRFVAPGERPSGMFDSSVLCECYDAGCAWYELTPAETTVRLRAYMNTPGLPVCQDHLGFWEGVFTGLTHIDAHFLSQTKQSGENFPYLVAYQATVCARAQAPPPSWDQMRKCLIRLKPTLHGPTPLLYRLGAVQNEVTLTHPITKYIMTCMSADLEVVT
Chain of NS3/NS4 complexes (P27958 1658-1711): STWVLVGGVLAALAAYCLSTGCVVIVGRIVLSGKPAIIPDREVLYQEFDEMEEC

IC50 ([1]; Table 2, read-out: IC50) | SMILES | further results
0.075 to 0.5 µM | COc1cccc(N[C@H]2CCCCC/C=C\[C@@H]3C[C@@]3(C(=O)O)NC(=O)[C@@H]3C[C@@H](Oc4nc5ccccc5s4)CN3C2=O)c1 [Compound 132] | –
0.01 to 0.075 µM | O=C1N[C@]2(C(=O)O)C[C@H]2/C=C\CCCCC[C@H](Nc2cc(F)cc(C(F)(F)F)c2)C(=O)N2C[C@H](Oc3nc4ccccc4s3)C[C@@H]12 [Compound 321] | –
0.01 to 0.075 µM | O=C1N[C@]2(C(=O)O)C[C@H]2/C=C\CCCCC[C@H](Nc2cc(F)cc(C(F)(F)F)c2)C(=O)N2C[C@H](Oc3nc4ccc(Cl)cc4s3)C[C@@H]12 [Compound 322] | –
< 0.01 µM | Cc1ccc2nc(O[C@@H]3C[C@H]4C(=O)N[C@]5(C(=O)O)C[C@H]5/C=C\CCCCC[C@H](Nc5cc(F)cc(C(F)(F)F)c5)C(=O)N4C3)sc2c1 [Compound 323] | –
0.01 to 0.075 µM | O=C1N[C@]2(C(=O)O)C[C@H]2/C=C\CCCCC[C@H](Nc2ccc3ccccc3c2)C(=O)N2C[C@H](Oc3nc4ccccc4s3)C[C@@H]12 [Compound 327] | –
0.075 to 0.5 µM | O=C1N[C@]2(C(=O)O)C[C@H]2/C=C\CCCCC[C@H](Nc2ccc(C(F)(F)F)cc2)C(=O)N2C[C@H](Oc3nc4ccccc4s3)C[C@@H]12 [Compound 329] | –
< 0.01 µM | COc1ccc2c(O[C@@H]3C[C@H]4C(=O)N[C@]5(C(=O)O)C[C@H]5/C=C\CCCCC[C@H](Nc5cccc(F)c5)C(=O)N4C3)cc(-c3nc(C(C)C)cs3)nc2c1C [Compound 448] | –

Further lines, the compound ahead of its results:

SMILES | IC50 ([1]; Table 2, read-out: IC50) | further results
O=C1N[C@]2(C(=O)O)C[C@H]2/C=C\CCCCC[C@H](Nc2ccccc2)C(=O)N2C[C@H](Oc3nc4ccccc4s3)C[C@@H]12 [Compound 101] | 0.075 to 0.5 µM | EC50 [2]: > 0.5 µM
O=C1N[C@]2(C(=O)O)C[C@H]2/C=C\CCCCC[C@H](Nc2cccc(F)c2)C(=O)N2C[C@H](Oc3nc4ccccc4s3)C[C@@H]12 [Compound 123] | 0.075 to 0.5 µM | –
O=C1N[C@]2(C(=O)O)C[C@H]2/C=C\CCCCC[C@H](Nc2cc(F)cc(F)c2)C(=O)N2C[C@H](Oc3nc4ccccc4s3)C[C@@H]12 [Compound 324] | 0.01 to 0.075 µM | –
O=C1N[C@]2(C(=O)O)C[C@H]2/C=C\CCCCC[C@H](Nc2ccc(F)c(F)c2)C(=O)N2C[C@H](Oc3nc4ccccc4s3)C[C@@H]12 [Compound 343] | 0.075 to 0.5 µM | –
O=C1N[C@]2(C(=O)O)C[C@H]2/C=C\CCCCC[C@H](Nc2cc(Cl)cc(Cl)c2)C(=O)N2C[C@H](Oc3nc4ccccc4s3)C[C@@H]12 [Compound 344] | 0.075 to 0.5 µM | –
COc1ccc2c(O[C@@H]3C[C@H]4C(=O)N[C@]5(C(=O)NS(=O)(=O)C6(C)CC6)C[C@H]5/C=C\CCCCC[C@H](Nc5cc(F)cc(C(F)(F)F)c5)C(=O)N4C3)cc(-c3ccccc3)nc2c1 [Compound 357] | 0.01 to 0.075 µM | –
COc1ccc2c(O[C@@H]3C[C@H]4C(=O)N[C@]5(C(=O)NS(=O)(=O)C6(C)CC6)C[C@H]5/C=C\CCCCC[C@H](Nc5cccc(C(N)=O)c5)C(=O)N4C3)cc(-c3nc(C(C)C)cs3)nc2c1C [Compound 483] | – | EC50 [2]: < 0.01 µM
COc1ccc2c(O[C@@H]3C[C@H]4C(=O)N[C@]5(C(=O)NS(=O)(=O)C6(C)CC6)C[C@H]5/C=C\CCCCC[C@H](Nc5cccc(NS(C)(=O)=O)c5)C(=O)N4C3)cc(-c3nc(C(C)C)cs3)nc2c1C [Compound 484] | – | EC50 [2]: 0.01 to 0.075 µM
COc1ccc2c(O[C@@H]3C[C@H]4C(=O)N[C@]5(C(=O)NS(=O)(=O)C6(C)CC6)C[C@H]5/C=C\CCCCC[C@H](Nc5ccc(NC(C)=O)cc5)C(=O)N4C3)cc(-c3nc(C(C)C)cs3)nc2c1C [Compound 485] | – | EC50 [2]: 0.01 to 0.075 µM
CC(C)(C)OC(=O)N[C@H]1CCCCC/C=C\[C@@H]2C[C@@]2(C(=O)NOc2ccccc2)NC(=O)[C@@H]2C[C@@H](Oc3nc4ccccc4s3)CN2C1=O [Compound 1020] | – | IC50 ([1]; Table 3, read-out: IC50): 0.01 to 0.1 µM
CC(C)(C)OC(=O)N[C@H]1CCCCC/C=C\[C@@H]2C[C@@]2(C(=O)NOc2ccccc2)NC(=O)[C@@H]2C[C@@H](Oc3nc4ccc(F)cc4s3)CN2C1=O [Compound 1021] | – | IC50 ([1]; Table 3, read-out: IC50): 0.01 to 0.1 µM
CC(C)(C)OC(=O)N[C@H]1CCCCC/C=C\[C@@H]2C[C@@]2(C(=O)NOc2ccccc2)NC(=O)[C@@H]2C[C@@H](Oc3nc4ccc(Br)cc4s3)CN2C1=O [Compound 1022] | – | IC50 ([1]; Table 3, read-out: IC50): > 0.1 µM
CC(C)(C)OC(=O)N[C@H]1CCCCC/C=C\[C@@H]2C[C@@]2(C(=O)NOc2ccccc2)NC(=O)[C@@H]2C[C@@H](Oc3nc4ccc(Cl)cc4s3)CN2C1=O [Compound 1023] | – | IC50 ([1]; Table 3, read-out: IC50): > 0.1 µM
Cc1ccc2nc(O[C@@H]3C[C@H]4C(=O)N[C@]5(C(=O)NOc6ccccc6)C[C@H]5/C=C\CCCCC[C@H](NC(=O)OC(C)(C)C)C(=O)N4C3)sc2c1 [Compound 1024] | – | IC50 ([1]; Table 3, read-out: IC50): > 0.1 µM
COc1ccc2nc(O[C@@H]3C[C@H]4C(=O)N[C@]5(C(=O)NOc6ccccc6)C[C@H]5/C=C\CCCCC[C@H](NC(=O)OC(C)(C)C)C(=O)N4C3)sc2c1 [Compound 1025] | – | IC50 ([1]; Table 3, read-out: IC50): > 0.1 µM
